The structures appear in SMILES notation. Counter-ions that a name gives are not always drawn.

Data set [1] in a line: Pharmacokinetics of dry powder administered subcutaneously via dorsal incision (Example 5). The class given is in vivo, Sprague Dawley rats. Particulars: dry powder 230, via dorsal incision, bupivacaine salt 149 vs lidocaine salt 226 mg/kg. The method, then: Terminal collections were performed via vena cava.
The test articles were drug compositions designated as Test Articles A and B, which were administered as a single subcutaneous dose via dorsal incision to female CD (Sprague Dawley) rats.
(§1) Ten (10) female, jugular vein catheterized (JVC) CD rats initially were assigned to two dose groups consisting of five animals per group.
(§2) Each test article was provided as a powder in an individual vial.

The test system of data set [2] is female CD (Sprague Dawley) rats. Particulars: rat, in vivo. How it is done:
Clinical observations were performed daily.
as §1, §2

Data set [3] relates to female Sprague-Dawley rats. Conditions: rat, in vivo, sc.
Method: (§3) Clinical observations were performed daily. […] Other characteristics observed included appearance of skin and fur, appearance of eyes and mucous membranes, urine and fecal output, and changes in locomotor behavior. The times of observation were approximately the same each day, and the date of each observation was recorded.
The vehicle was a hyaluronic acid vehicle. The animals received a single subcutaneous dose of the test article or vehicle delivered to the dorsal area of the animals.
In addition, dose sites were exposed for gross evaluation of residual test articles and local response to the injected materials.
The test system of data set [4] is female Sprague Dawley (CD) rats. Particulars: rat, in vivo, sc.
Method: as §3
Animals were euthanized at the end of the study via carbon dioxide inhalation (CO2) followed by thoracotomy. Gross necropsy of the dose sites were performed and they were collected for histopathology. Photographs were taken for any observation of tissue or reaction to treatment. Carcasses were discarded without further examination.
Twenty (20) female, jugular vein catheterized (JVC) Sprague Dawley (CD) rats initially were assigned to four dose groups consisting of eight (Test Articles A and B) or two (Test Articles B and C) animals per group. The animals received a single subcutaneous dose of the test article delivered to the dorsal subcutaneum of the animals via a dorsal skin incision.
Test articles were provided as a powder in individual vials (Test Articles A and B), or as a solution (Test Articles C and D). On the day of testing, each animal's dose was individually calculated, weighed or measured, and recorded. […]

In the case of `CCCCN1CCCCC1C(=O)Nc1c(C)cccc1C` (stereo not drawn) [Test Article B, Bupivacaine tridecafluorohexane-sulfonate salt 230], the “Cmax compared to the lidocaine particles” value in data set [1] is “lower”. For the same compound, the “duration of release compared to the lidocaine particles” value in data set [1] (listed as bupivacaine particles) is on record as “longer”; in data set [1] (listed as bupivaciane particles) it was “significantly longer”.

For the compound `CCN(CC)CC(=O)Nc1c(C)cccc1C.O=S(=O)(O)C(F)(F)C(F)(F)C(F)(F)C(F)(F)C(F)(F)C(F)(F)C(F)(F)C(F)(F)F` [Test Article B], the “tolerability of single subcutaneous dose administered through a dorsal incision” value in data set [2] is reported as “tolerated”. Also, in data set [3], the clinical observations entry was “slightly dehydrated and hypoactive”. Moreover, in data set [4], the “vascularization surrounding the incision sites on the subcutaneous skin layers” value is “slight to moderate”.

Source of the values: patent US20200323833A1, “HYDROPHOBIC ACID ADDITION SALTS” (Theracaine LLC, priority 2017, published 2020).
